Test results reported in patent US20130259884A1, “PEPTIDES” ([…] SL, priority 2010, published 2013).
Where a SMILES comes first, the peptide text is derived from it.

Assay: Water solubility of peptides when preparing stock solutions
Type: physicochemical
Conditions: stock solution in sterile distilled water or 100% DMSO; read-out: solubility of peptide (water soluble or water insoluble, dissolved in DMSO)
Method: For challenge, peptides were administered as follows: • Individual peptides (soluble). Individual water soluble peptides were dissolved as 10, 5 or 2.5 mg/ml stock solutions in sterile distilled water. Before use, each peptide was diluted in water to 2 mg/ml and 10 μl of this 2 mg/ml mix was added to 990 μl of media. Then 100 μl of this peptide/media mix was added to 100 μl of media containing 350,000 PBMC in an ELISPOT anti-IL-4 coated cell culture plate well for a final peptide concentration of 10 μg/ml. Identically diluted media only was added to the cells and used for the no peptide media control wells (media only). • Individual peptides (DMSO). Individual water insoluble peptides were dissolved in 100% DMSO to a stock concentration of 50 mg/ml. Before use each peptide was diluted in water to 2 mg/ml and then 10 μl of the 2 mg/ml mix was added to 990 μl of cell-culture media. Then 100 μl of this peptide/media mix was added to 100 μl of media containing 350,000 PBMC in an ELISPOT anti-IL-4 coated cell culture plate well for a final peptide concentration of 10 μg/ml. Identically diluted media only was added to the cells and used for the no peptide media control wells (media only). • A combination preparation containing Alt a 1 soluble peptides (33.2, 34.3, 35.4, 35.5, 37.3.1, 37.4.1, L6-5.01, L10-1.01, L10-2.01, L10-3), called Alt a 1 Sol. Each peptide was diluted from water stock to 2 mg/ml in sterile distilled water. Then 10 μl of each peptide required for the combined preparation was mixed and brought up to 1 ml in media. Then 100 μl of this peptide/media mix was added to 100 μl of media containing 350,000 PBMC in an ELISPOT anti-IL-4 coated cell culture plate well for a final concentration of each peptide of 10 μg/ml. Identically diluted media only was used for the no peptide control wells (media only). • A combination preparation containing Alt a 1 DMSO peptides (32.2.1, 38.2.1, 35.2, 35.3, L6-2, L6-3, L6-4, 38.3, 37.2), called Alt a 1 DMSO. Each peptide was diluted from DMSO stock to 2 mg/ml in sterile distilled water. Then 10 μl of each peptide required for the combined preparation was mixed and brought up to 1 ml in media. Then 100 μl of this peptide/media mix is added to 100 μl of media containing 350,000 PBMC in an ELISPOT anti-IL-4 coated cell culture plate well for a final concentration of each peptide of 10 μg/ml. Identically diluted media only was used for the no peptide control wells (media only). • A combination preparation containing non-Alt a 1 soluble peptides (40.2, 41.2, 43.2, 44.2, 46.2, 47.2.1, 56.2, 57.2.1, 60.2, 62.2.1, 67.2, 71.3), called Alt a Other Sol. Each peptide was diluted from water stock to 2 mg/ml in sterile distilled water. Then 10 μl of each peptide required for the combined preparation was mixed and brought up to 1 ml in media, Then 100 μl of this peptide/media mix was added to 100 μl of media containing 350,000 PBMC in an ELISPOT anti-IL-4 coated cell culture plate well for a final concentration of each peptide at 10 μg/ml. Identically diluted media only was used for the no peptide control wells (media only). • A combination preparation containing non-Alt a 1 DMSO peptides (39.2, 42.2, 45.2, 48.2.1, 50.2, 51.2.1, 61.2.1, 66.3.1, 68.2.1, 70.2, 71.2, 72.2), called Alt a Other DMSO. Each peptide was diluted from DMSO stock to 2 mg/ml in sterile distilled water. Then 10 ul of each peptide required for the combined preparation was mixed and brought up to 1 ml in media, Then 100 μl of this peptide/media mix was added to 100 μl of media containing 350,000 PBMC in an ELISPOT anti-IL-4 coated cell culture plate well for a final concentration of each peptide at 10 μg/ml. Identically diluted media only was used for the no peptide control wells (media only).
CC(C)C[C@H](NC(=O)[C@@H](NC(=O)CNC(=O)[C@H](Cc1c[nH]c2ccccc12)NC(=O)CNC(=O)[C@H](C)NC(=O)CN)C(C)C)C(=O)N[C@H](C(=O)N[C@@H](CO)C(=O)N[C@@H](Cc1c[nH]cn1)C(=O)N[C@@H](CCCNC(=N)N)C(=O)N[C@@H](CO)C(=O)NCC(=O)N[C@@H](CCC(=O)O)C(=O)N[C@H](C(=O)O)[C@@H](C)O)C(C)C [Peptide 62.2.1, GAGWGVLVSHRSGET] (H-GAGWGVLVSHRSGET-OH) showed a solubility greater than 2500 µg/mL.
CC(C)C[C@H](NC(=O)[C@H](CC(N)=O)NC(=O)[C@H](C)NC(=O)[C@H](CC(C)C)NC(=O)[C@H](CC(C)C)NC(=O)[C@H](CO)NC(=O)[C@H](Cc1ccccc1)NC(=O)[C@H](C)NC(=O)[C@@H](NC(=O)[C@H](CCCCN)NC(=O)[C@H](Cc1ccc(O)cc1)NC(=O)CNC(=O)[C@H](CC(C)C)NC(=O)[C@@H]1CCCN1C(=O)[C@@H](N)C(C)C)[C@@H](C)O)C(=O)O [Peptide 66.3.1, VPLGYKTAFSLLANL] (H-VPLGYKTAFSLLANL-OH) gave a solubility of less than 2500 µg/mL.
Compound CC[C@H](C)[C@H](NC(=O)[C@H](CC(=O)O)NC(=O)[C@H](CCC(N)=O)NC(=O)[C@@H]1CCCN1C(=O)[C@@H](NC(=O)[C@H](Cc1ccccc1)NC(=O)[C@H](CC(=O)O)NC(=O)[C@H](CO)NC(=O)[C@@H](N)CC(C)C)C(C)C)C(=O)N[C@@H](CCC(N)=O)C(=O)N[C@@H](CCCCN)C(=O)N[C@@H](CC(C)C)C(=O)N[C@@H](Cc1c[nH]c2ccccc12)C(=O)N[C@@H](Cc1c[nH]cn1)C(=O)N[C@@H](CO)C(=O)O [Peptide 67.2, LSDFVPQDIQKLWHS] (H-LSDFVPQDIQKLWHS-OH) has a solubility greater than 2500 µg/mL.
CC(C)[C@H](NC(=O)[C@H](Cc1ccc(O)cc1)NC(=O)[C@H](CO)NC(=O)[C@H](CO)NC(=O)[C@H](C)NC(=O)[C@H](CC(=O)O)NC(=O)[C@H](CO)NC(=O)[C@H](C)NC(=O)[C@H](Cc1ccccc1)NC(=O)[C@H](Cc1ccc(O)cc1)NC(=O)[C@@H](NC(=O)[C@H](Cc1ccc(O)cc1)NC(=O)[C@H](C)NC(=O)CNC(=O)[C@@H](N)CCCCN)C(C)C)C(=O)O [Peptide 68.2.1, KGAYVYFASDASSYV] (H-KGAYVYFASDASSYV-OH) showed a solubility of less than 2500 µg/mL.
Work on CC[C@H](C)[C@H](NC(=O)[C@H](Cc1ccccc1)NC(=O)[C@H](Cc1ccc(O)cc1)NC(=O)CNC(=O)[C@H](CCCCN)NC(=O)[C@@H](N)CC(=O)O)C(=O)N[C@@H](CCC(=O)O)C(=O)N1CCC[C@H]1C(=O)N[C@H](C(=O)N[C@H](C(=O)N[C@@H](Cc1ccccc1)C(=O)N[C@@H](CO)C(=O)N[C@@H](CC(N)=O)C(=O)N[C@H](C(=O)N[C@H](C(=O)O)[C@@H](C)O)C(C)C)[C@@H](C)CC)[C@@H](C)O [Peptide 70.2, DKGYFIEPTIFSNVT] (H-DKGYFIEPTIFSNVT-OH; N-terminus and C-terminus assumed) yielded a solubility of less than 2500 µg/mL.
For CC[C@H](C)[C@H](NC(=O)[C@H](CO)NC(=O)[C@@H](NC(=O)[C@@H](NC(=O)[C@H](CCCCN)NC(=O)[C@@H](NC(=O)[C@H](CCC(N)=O)NC(=O)[C@@H](NC(=O)[C@H](Cc1ccc(O)cc1)NC(=O)[C@H](CC(N)=O)NC(=O)[C@H](CC(=O)O)NC(=O)[C@@H](N)CC(C)C)[C@@H](C)CC)[C@@H](C)O)[C@@H](C)O)C(C)C)C(=O)N[C@@H](CCCNC(=N)N)C(=O)N[C@@H](CC(C)C)C(=O)NCC(=O)O [Peptide 71.2, LDNYIQTKTVSIRLG] (H-LDNYIQTKTVSIRLG-OH), the solubility was less than 2500 µg/mL.
For CC[C@H](C)[C@H](NC(=O)[C@H](CO)NC(=O)[C@@H](NC(=O)[C@@H](NC(=O)[C@H](CCCCN)NC(=O)[C@@H](NC(=O)[C@@H](N)CCC(N)=O)[C@@H](C)O)[C@@H](C)O)C(C)C)C(=O)N[C@@H](CCCNC(=N)N)C(=O)N[C@@H](CC(C)C)C(=O)NCC(=O)N[C@@H](CC(=O)O)C(=O)N[C@H](C(=O)N[C@@H](CC(C)C)C(=O)N[C@@H](Cc1ccccc1)C(=O)NCC(=O)O)C(C)C [Peptide 71.3, QTKTVSIRLGDVLFG] (H-QTKTVSIRLGDVLFG-OH), the solubility was greater than 2500 µg/mL.
With CC(C)C[C@H](NC(=O)[C@H](CCC(N)=O)NC(=O)[C@H](Cc1c[nH]c2ccccc12)NC(=O)[C@H](Cc1c[nH]cn1)NC(=O)[C@H](CC(C)C)NC(=O)[C@@H](NC(=O)[C@H](CC(N)=O)NC(=O)[C@H](Cc1ccc(O)cc1)NC(=O)[C@H](CO)NC(=O)[C@H](CC(N)=O)NC(=O)[C@@H](NC(=O)[C@H](Cc1c[nH]c2ccccc12)NC(=O)[C@@H](NC(=O)[C@@H](NC(=O)CN)[C@@H](C)O)C(C)C)C(C)C)[C@@H](C)O)C(=O)O [Peptide 72.2, GTVWVNSYNTLHWQL] (H-GTVWVNSYNTLHWQL-OH) the solubility was less than 2500 µg/mL.
In the case of CC[C@H](C)[C@H](N)C(=O)N[C@@H](C)C(=O)N[C@@H](CO)C(=O)N[C@@H](CC(C)C)C(=O)N[C@@H](Cc1ccccc1)C(=O)N[C@@H](C)C(=O)N[C@@H](C)C(=O)N[C@@H](C)C(=O)NCC(=O)N[C@@H](CC(C)C)C(=O)N[C@@H](C)C(=O)N[C@@H](C)C(=O)N[C@@H](C)C(=O)N[C@@H](C)C(=O)N1CCC[C@H]1C(=O)O [Peptide L6-2, IASLFAAAGLAAAAP], the solubility is reported as less than 2500 µg/mL.
CC(C)C[C@H](NC(=O)[C@@H]1CCCN1C(=O)[C@H](C)NC(=O)[C@H](C)NC(=O)[C@H](C)NC(=O)[C@H](C)NC(=O)[C@H](CC(C)C)NC(=O)CNC(=O)[C@H](C)NC(=O)[C@H](C)NC(=O)[C@H](C)NC(=O)[C@H](Cc1ccccc1)NC(=O)[C@H](CC(C)C)NC(=O)[C@H](CO)NC(=O)[C@H](C)N)C(=O)O [Peptide L6-3, ASLFAAAGLAAAAPL] (H-ASLFAAAGLAAAAPL-OH) showed a solubility of less than 2500 µg/mL.
CC[C@H](C)[C@H](NC(=O)[C@H](CC(N)=O)NC(=O)[C@H](Cc1ccccc1)NC(=O)CNC(=O)[C@H](CC(C)C)NC(=O)[C@H](CO)NC(=O)[C@H](CC(N)=O)NC(=O)[C@H](Cc1ccc(O)cc1)NC(=O)[C@H](Cc1ccc(O)cc1)NC(=O)[C@@H](NC(=O)CN)[C@@H](C)O)C(=O)N[C@@H](CCCCN)C(=O)N[C@@H](C)C(=O)N[C@H](C(=O)N[C@@H](CC(N)=O)C(=O)O)[C@@H](C)O [Peptide L6-4, GTYYNSLGFNIKATN] (H-GTYYNSLGFNIKATN-OH) showed a solubility of less than 2500 µg/mL.
Compound CC(C)C[C@H](N)C(=O)N1CCC[C@H]1C(=O)N[C@@H](CC(N)=O)C(=O)N[C@@H](Cc1ccc(O)cc1)C(=O)N[C@H](C(=O)N[C@@H](CCCNC(=N)N)C(=O)N[C@@H](C)C(=O)NCC(=O)NCC(=O)N[C@@H](CC(N)=O)C(=O)NCC(=O)N1CCC[C@H]1C(=O)N[C@@H](CCCCN)C(=O)N[C@@H](CC(=O)O)C(=O)N[C@@H](Cc1ccccc1)C(=O)O)C(C)C [Peptide L6-5.01, LPNYVRAGGNGPKDF] (H-LPNYVRAGGNGPKDF-OH) has a solubility greater than 2500 µg/mL.
For CC(C)C[C@H](NC(=O)[C@H](CCCCN)NC(=O)[C@H](CC(=O)O)NC(=O)[C@H](C)NC(=O)[C@H](CCC(N)=O)NC(=O)[C@H](C)NC(=O)[C@H](CO)NC(=O)[C@@H](NC(=O)[C@@H](NC(=O)[C@H](Cc1ccccc1)NC(=O)[C@H](CC(=O)O)NC(=O)[C@H](CC(C)C)NC(=O)[C@@H](NC(=O)CNC(=O)CN)[C@@H](C)O)[C@@H](C)O)C(C)C)C(=O)O [Peptide L10-1.01, GGTLDFTVSAQADKL] (H-GGTLDFTVSAQADKL-OH), the solubility was greater than 2500 µg/mL.
